Some results are limits rather than exact numbers.

The target of this assay is T1, CBL-B (Homo sapiens, UniProt Q13191).
T1 construct: GST
T1 sequence (Q13191 whole entry): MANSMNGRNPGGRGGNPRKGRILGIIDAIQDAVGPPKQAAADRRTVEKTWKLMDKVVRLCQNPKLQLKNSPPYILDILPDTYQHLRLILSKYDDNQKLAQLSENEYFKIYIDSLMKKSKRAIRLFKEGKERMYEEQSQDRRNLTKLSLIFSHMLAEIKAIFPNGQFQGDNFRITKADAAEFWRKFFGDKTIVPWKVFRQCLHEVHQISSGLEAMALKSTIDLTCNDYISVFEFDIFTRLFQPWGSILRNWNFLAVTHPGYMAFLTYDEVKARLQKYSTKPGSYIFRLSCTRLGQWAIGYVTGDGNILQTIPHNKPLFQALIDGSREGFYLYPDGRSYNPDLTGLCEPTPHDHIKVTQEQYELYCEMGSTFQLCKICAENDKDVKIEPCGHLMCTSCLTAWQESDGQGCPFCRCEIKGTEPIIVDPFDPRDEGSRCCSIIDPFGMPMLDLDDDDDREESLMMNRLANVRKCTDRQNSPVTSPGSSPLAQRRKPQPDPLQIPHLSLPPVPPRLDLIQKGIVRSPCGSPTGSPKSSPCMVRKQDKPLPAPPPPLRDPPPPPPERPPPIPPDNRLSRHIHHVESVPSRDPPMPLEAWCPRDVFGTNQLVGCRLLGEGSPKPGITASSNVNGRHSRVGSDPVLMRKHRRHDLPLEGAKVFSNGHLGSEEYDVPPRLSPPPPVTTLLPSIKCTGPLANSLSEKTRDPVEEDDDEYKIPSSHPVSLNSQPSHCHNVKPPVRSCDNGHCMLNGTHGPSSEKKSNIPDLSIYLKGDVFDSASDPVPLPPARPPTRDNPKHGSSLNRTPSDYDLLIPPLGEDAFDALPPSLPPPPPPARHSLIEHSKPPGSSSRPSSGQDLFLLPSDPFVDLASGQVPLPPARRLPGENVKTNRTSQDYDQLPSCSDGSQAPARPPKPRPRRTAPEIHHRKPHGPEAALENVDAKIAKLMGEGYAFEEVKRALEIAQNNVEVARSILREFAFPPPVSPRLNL
Kind of assay: CBL-B TR-FRET IC50 screening (E1/E2 ubiquitination, Biotin-Ubiquitin, Anti GST-Tb donor / Streptavidin-d2 acceptor). The class given is biochemical. To be noted: CBL-B 10 nM final; 11-point titration from 100 uM; binned A-F; read-out: CBL-B TR-FRET activity IC50.
In the case of `C[C@@H](c1cc(C(F)(F)F)c2cn(-c3cccc(C4([C@H](F)c5nncn5C)COC4)c3)c(=O)n2c1)N1CCC2(CC2)C1` [Compound 54], the IC50 fell in the range of 100 to 300 nM.
As for `C[C@H](c1cc(C(F)(F)F)c2cn(-c3cccc(C4([C@@H](F)c5nncn5C)COC4)c3)c(=O)n2c1)N1CCC2(CC2)C1` [Compound 55], the figure is below 100 nM; as for `C[C@@H](c1cc(C(F)(F)F)c2cn(-c3cccc(C4([C@@H](F)c5nncn5C)COC4)c3)c(=O)n2c1)N1CCC2(CC2)C1` [Compound 56], below 100 nM.
For `C[C@H](c1cc(C(F)(F)F)c2cn(-c3cccc(C4([C@H](F)c5nncn5C)COC4)c3)c(=O)n2c1)N1CCC2(CC2)C1` [Compound 57] the value was below 100 nM.
In the case of `CN1CC=C(c2cc(C(F)(F)F)c3cn(-c4cccc(C5(Cc6nncn6C)COC5)c4)c(=O)n3c2)CC1` [Compound 58, 2-(3-[3-[(4-methyl-1,2,4-triazol-3-yl)methyl]oxetan-3-yl]phenyl)-6-(1-methyl-3,6-dihydro-2H-pyridin-4-yl)-8-(trifluoromethyl)imidazo[1,5-a]pyridin-3-one], the IC50 lay within 1000 to 3000 nM.
On to `Cn1cnnc1CC1(c2cccc(-n3cc4c(C(F)(F)F)cc(CN5CC(O)C5)cn4c3=O)c2)COC1` [Compound 61], for which the IC50 was in the range of 100 to 300 nM.
For `CN1CCC=C(c2cc(C(F)(F)F)c3cn(-c4cccc(C5(Cc6nncn6C)COC5)c4)c(=O)n3c2)C1` [Compound 63] the value was 100 to 300 nM; for `Cn1cnnc1CC1(c2cccc(-n3cc4c(C(F)(F)F)cc(C5=CCNC5)cn4c3=O)c2)COC1` [Compound 64], 1000 to 3000 nM.
For `Cn1cnnc1CC1(c2cccc(-n3cc4c(C(F)(F)F)cc(C5CCN(C(=O)OC(C)(C)C)C5)cn4c3=O)c2)COC1` (stereo not drawn) [Compound 65] the value was 301 to 1000 nM; for `Cn1cnnc1CC1(c2cccc(-n3cc4c(Cl)cc(CN5CC[C@H](F)C5)cn4c3=O)c2)COC1` [Compound 66], below 100 nM; for `C=C(C)C[C@H](c1cccc(-n2cc3c(C(F)(F)F)cc(CN4CCC[C@H](C)C4)cn3c2=O)c1)c1nncn1C` [Compound 69], below 100 nM.
For `Cc1cccn2c(=O)n(-c3cccc(C4(Cc5nncn5C)COC4)c3)cc12` [Compound 70] the value was 301 to 1000 nM; for `Cn1cnnc1CC1(c2cccc(-n3cc4ccccn4c3=O)c2)COC1` [Compound 71], 100 to 300 nM; for `C[C@@H]1CN(Cc2cc(C(F)(F)F)c3cn(-c4cccc(C5(Cc6nncn6C)COC5)c4)c(=O)n3c2)CCC1(F)F` [Compound 72], 301 to 1000 nM.
Take `C[C@H]1CN(Cc2cc(C(F)(F)F)c3cn(-c4cccc(C5(Cc6nncn6C)COC5)c4)c(=O)n3c2)CCC1(F)F` [Compound 73]: the IC50 was in the range of 3000 to 10000 nM.
Regarding `C[C@H]1CCCN(Cc2cc(C(F)(F)F)c3cn(-c4cccc(C5(c6nncn6C)CC6(CC6)C5)c4)c(=O)n3c2)C1` [Compound 74], the IC50 was in the range of 100 to 300 nM.
For `Cn1cnnc1CC1(c2cccc(-n3cc4c(C(F)(F)F)cc(CNCCO)cn4c3=O)c2)COC1` [Compound 75] the value was 100 to 300 nM.
Take `CN(CCO)Cc1cc(C(F)(F)F)c2cn(-c3cccc(C4(Cc5nncn5C)COC4)c3)c(=O)n2c1` [Compound 76]: the IC50 is 100 to 300 nM.
As to `COCCOCc1cc(C(F)(F)F)c2cn(-c3cccc(C4(Cc5nncn5C)COC4)c3)c(=O)n2c1` [Compound 77], the IC50 was below 100 nM.
As for `CN1CC=C(c2cc(C(F)(F)F)c3cn(-c4cccc(C5(Cc6nncn6C)COC5)c4)c(=O)n3c2)C1` [Compound 78], the figure is below 100 nM; as for `CN(C)C1CC=C(c2cc(C(F)(F)F)c3cn(-c4cccc(C5(Cc6nncn6C)COC5)c4)c(=O)n3c2)CC1` (stereo not drawn) [Compound 79], below 100 nM; as for `Cn1cnnc1CC1(c2cccc(-n3cc4c(C(F)(F)F)cc(C5CCNC5)cn4c3=O)c2)COC1` (stereo not drawn) [Compound 80], 301 to 1000 nM.
For `CN1CCC(c2cc(C(F)(F)F)c3cn(-c4cccc(C5(Cc6nncn6C)COC5)c4)c(=O)n3c2)C1` (stereo not drawn) [Compound 83], the 50% inhibitory concentration (IC50) is above 10000 nM.
For `CN1CCCC(c2cc(C(F)(F)F)c3cn(-c4cccc(C5(Cc6nncn6C)COC5)c4)c(=O)n3c2)C1` (stereo not drawn) [Compound 84] the value was above 10000 nM; for `C[C@H]1CCCN(Cc2cc(C(F)(F)F)c3cn(-c4cccc([C@H](c5nncn5C)C5CCC5)c4)c(=O)n3c2)C1` [Compound 85], below 100 nM; for `C[C@H]1CCCN(Cc2cc(C(F)(F)F)c3cn(-c4cccc([C@@H](c5nncn5C)C5CCC5)c4)c(=O)n3c2)C1` [Compound 86], 301 to 1000 nM.
With `CN(C)C1CCC(c2cc(C(F)(F)F)c3cn(-c4cccc(C5(Cc6nncn6C)COC5)c4)c(=O)n3c2)CC1` (stereo not drawn) [Compound 87], the IC50 lay within 100 to 300 nM.
Turning to `COc1cc(C(F)(F)F)c2cn(-c3cccc(C4(Cc5nncn5C)COC4)c3)c(=O)n2c1` [Compound 88], the IC50 was 1000 to 3000 nM.
For `Cn1cnnc1CC1(c2cccc(-n3cc4c(C(F)(F)F)cc(C#CCN5CCCC5)cn4c3=O)c2)COC1` [Compound 89] the value was 100 to 300 nM; for `Cn1cnnc1CC1(c2cccc(-n3cc4c(C(F)(F)F)cc(COCCO)cn4c3=O)c2)COC1` [Compound 90], 100 to 300 nM; for `O=c1n(-c2cccc(C3(Cc4nncn4C(F)F)COC3)c2)cc2c(C(F)(F)F)cc(CN3CCC4(CC4)C3)cn12` [Compound 91], below 100 nM.
For `Cn1cnnc1CC1(c2cccc(-n3cc4c(C(F)(F)F)cc(CCC(=O)O)cn4c3=O)c2)COC1` [Compound 92] the value was 301 to 1000 nM; for `Cn1cnnc1CC1(c2cccc(-n3cc4c(C(F)(F)F)cc(Cl)cn4c3=O)c2)COC1` [Compound 93], 100 to 300 nM; for `Cn1cnnc1CC1(c2cccc(-n3cc4c(C=O)cccn4c3=O)c2)COC1` [Compound 94], 3000 to 10000 nM.
As for `Cn1cnnc1CC1(c2cccc(-n3cc4c(C(F)F)cccn4c3=O)c2)COC1` [Compound 95], the figure is 301 to 1000 nM; as for `Cn1cnnc1CC1(c2cccc(-n3cc4c(C(F)(F)F)cc(OCC(C)(C)O)cn4c3=O)c2)COC1` [Compound 98], 100 to 300 nM; as for `Cn1cnnc1CC1(c2cccc(-n3cc4c(C(F)(F)F)cc(C(C)(C)O)cn4c3=O)c2)COC1` [Compound 101], 1000 to 3000 nM.
Consider `[2H]C([2H])([2H])n1cnnc1C1(c2cccc(-n3cc4c(C(F)(F)F)cc(CN5CCC[C@H](C)C5)cn4c3=O)c2)CC2(CC2)C1` [Compound 102], for which the IC50 is below 100 nM.
As for `Cn1cnnc1C1(c2cccc(-n3cc4c(C(F)(F)F)cc(Br)cn4c3=O)c2)CC2(CC2)C1` [Compound 103], the figure is 100 to 300 nM.
As for `Cn1cnnc1CC1(c2cccc(-n3cc4c(C(F)(F)F)cc(F)cn4c3=O)c2)COC1` [Compound 104], the figure is 100 to 300 nM.
As for `COc1cc(-n2cc3c(C(F)(F)F)cc(Br)cn3c2=O)cc(C2(Cc3nncn3C)COC2)c1` [Compound 105], the figure is 100 to 300 nM; as for `Cn1cnnc1CC1(c2cccc(-n3cc4c(C(F)(F)F)cc(CN5CCNC(=O)C5)cn4c3=O)c2)COC1` [Compound 106], 100 to 300 nM.
Regarding `COc1cc(-n2cc3c(C(F)(F)F)cc(CN4CCC[C@H](C)C4)cn3c2=O)cc(C2(Cc3nncn3C)COC2)c1` [Compound 107], the IC50 is below 100 nM.
With `COc1cc(-n2cc3c(C(F)(F)F)cc(CN4CCC5(CC5)C4)cn3c2=O)cc(C2(Cc3nncn3C)COC2)c1` [Compound 108], the IC50 was below 100 nM.
Take `COc1cc(-n2cc3c(C(F)(F)F)cc(CN4CC[C@H](F)C4)cn3c2=O)cc(C2(Cc3nncn3C)COC2)c1` [Compound 109]: the IC50 was below 100 nM.
As for `COc1cc(-n2cc3c(C(F)(F)F)cc(CN4CC5(CC5)C4)cn3c2=O)cc(C2(Cc3nncn3C)COC2)c1` [Compound 110], the figure is below 100 nM.
As for `Cn1cnnc1C1(c2cccc(-n3cc4c(C(F)(F)F)cc(CN5CCC(C)(F)CC5)cn4c3=O)c2)CC2(CC2)C1` [Compound 111], the figure is below 100 nM; as for `Cn1cnnc1C1(c2cccc(-n3cc4c(C(F)(F)F)cc(CN5CCC(F)CC5)cn4c3=O)c2)CC2(CC2)C1` [Compound 112], below 100 nM; as for `Cn1cnnc1C1(c2cccc(-n3cc4c(C(F)(F)F)cc(C#N)cn4c3=O)c2)CC2(CC2)C1` [Compound 113], 301 to 1000 nM.
For `Cn1cnnc1C1(c2cccc(-n3cc4c(C(F)(F)F)cc(CN5CC6(CC6)C5)cn4c3=O)c2)CC2(CC2)C1` [Compound 114] the value was below 100 nM.
For `Cn1cnnc1C1(c2cccc(-n3cc4c(C(F)(F)F)cc(CN5CCC6(CC6)C5)cn4c3=O)c2)CC2(CC2)C1` [Compound 115], the IC50 is below 100 nM.
Turning to `C[C@@H]1CN(Cc2cc(C(F)(F)F)c3cn(-c4cccc(C5(c6nncn6C)CC6(CC6)C5)c4)c(=O)n3c2)CCO1` [Compound 116], the IC50 is below 100 nM.
As for `Cn1cnnc1C1(c2cccc(-n3cc4c(C(F)(F)F)cc(CN5CC[C@H](F)C5)cn4c3=O)c2)CC2(CC2)C1` [Compound 117], the figure is below 100 nM; as for `[2H]C([2H])([2H])n1cnnc1C1(c2cccc(-n3cc4c(C(F)(F)F)cc(CN5CCO[C@H](C)C5)cn4c3=O)c2)CC2(CC2)C1` [Compound 118], below 100 nM.
As for `COc1cc(-n2cc3c(C(F)(F)F)cc(CN4CCC(C)(F)CC4)cn3c2=O)cc(C2(Cc3nncn3C)COC2)c1` [Compound 121], the figure is below 100 nM; as for `CO[C@H]1CCCN(Cc2cc(C(F)(F)F)c3cn(-c4cccc(C5(Cc6nncn6C)COC5)c4)c(=O)n3c2)C1` [Compound 123], below 100 nM.
As for `CO[C@@H]1CCCN(Cc2cc(C(F)(F)F)c3cn(-c4cccc(C5(Cc6nncn6C)COC5)c4)c(=O)n3c2)C1` [Compound 124], the figure is below 100 nM; as for `Cn1cnnc1CC1(c2cccc(-n3cc4c(C(F)(F)F)cc(CN5CCC[C@H](O)C5)cn4c3=O)c2)COC1` [Compound 125], below 100 nM.
In the case of `Cn1cnnc1CC1(c2cccc(-n3cc4c(C(F)(F)F)cc(CN5CCC[C@@H](O)C5)cn4c3=O)c2)COC1` [Compound 126], the IC50 is below 100 nM.
For `Cn1cnnc1C(c1cccc(-n2cc3c(C(F)(F)F)cc(Br)cn3c2=O)c1)C1COC1` (stereo not drawn) [Compound 127] the value was 301 to 1000 nM.

The term IC50 denotes the point on the concentration scale where inhibition reaches its midpoint.

The record behind these values is US20240228482A1, “COMPOUNDS, COMPOSITIONS AND METHODS OF TREATING CANCER” (HOTSPOT THERAPEUTICS, INC., priority 2021, published 2024).
